Assays:
[1] = target: Human OGA (recombinant hOGA protein) (Homo sapiens (Human), UniProt O60502); assay: Human OGA enzyme activity assay (fluorescence, 4-Methylumbelliferyl N-acetyl-β-D-glucosaminide substrate); type: biochemical; conditions: for IC50: Table 1; for % of inhibition: Table 1, test concentration not given
human O-GlcNAcase = human O-GlcNAcase (Homo sapiens (Human), UniProt O60502); conditions: cited from earlier work
human O-GlcNAcase, sequence (O60502 whole entry): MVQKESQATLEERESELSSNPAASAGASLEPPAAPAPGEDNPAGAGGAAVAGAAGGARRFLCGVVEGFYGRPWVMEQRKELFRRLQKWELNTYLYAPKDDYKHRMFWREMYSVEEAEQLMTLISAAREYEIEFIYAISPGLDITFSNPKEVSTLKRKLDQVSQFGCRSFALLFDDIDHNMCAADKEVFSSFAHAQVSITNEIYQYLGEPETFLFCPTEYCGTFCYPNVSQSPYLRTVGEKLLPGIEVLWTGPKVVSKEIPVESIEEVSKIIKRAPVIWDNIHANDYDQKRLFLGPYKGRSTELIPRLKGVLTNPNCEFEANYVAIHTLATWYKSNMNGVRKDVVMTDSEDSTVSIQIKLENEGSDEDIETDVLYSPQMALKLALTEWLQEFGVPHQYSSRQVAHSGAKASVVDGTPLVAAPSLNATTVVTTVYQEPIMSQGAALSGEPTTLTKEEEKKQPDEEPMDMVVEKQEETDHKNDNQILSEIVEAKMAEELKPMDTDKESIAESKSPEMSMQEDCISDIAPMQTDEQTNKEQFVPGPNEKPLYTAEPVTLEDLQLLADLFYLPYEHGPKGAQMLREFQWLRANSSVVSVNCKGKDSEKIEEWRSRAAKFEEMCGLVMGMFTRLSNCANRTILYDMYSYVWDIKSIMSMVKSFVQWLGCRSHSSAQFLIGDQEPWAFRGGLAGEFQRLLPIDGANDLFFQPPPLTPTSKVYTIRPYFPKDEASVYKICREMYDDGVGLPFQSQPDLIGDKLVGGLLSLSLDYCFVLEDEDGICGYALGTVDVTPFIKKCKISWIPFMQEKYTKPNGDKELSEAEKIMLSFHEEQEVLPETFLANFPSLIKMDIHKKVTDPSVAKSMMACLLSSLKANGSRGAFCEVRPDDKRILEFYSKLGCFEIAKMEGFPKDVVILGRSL

Human OGA (recombinant hOGA protein), sequence (O60502 whole entry): as above

SMILES	IC50 [1] [nM]	% of inhibition [1] [%]	melting point [°C]	Ki (human O-GlcNAcase) [nM]
CC(=O)Nc1ncc(CN2CCN(CC(=O)Nc3ccc(F)cc3)CC2C)s1 (stereo not shown) [Compound A-33, 2-(4-((2-acetamidothiazol-5-yl)methyl)-3-methylpiperazin-1-yl)-N-(4-fluorophenyl)acetamide]	230	97.9	102 to 105	
CC(=O)Nc1ncc(CN2CCN(CC(=O)NC3CCCCC3)CC2C)s1 (stereo not shown) [Compound A-35, 2-(4-((2-acetamidothiazol-5-yl)methyl)-3-methylpiperazin-1-yl)-N-cyclohexylacetamide]	100	98.4	184 to 187	
CC(=O)Nc1ncc(CN2CCN(CC(=O)Nc3ccc(N4CCN(C(C)=O)CC4)cc3)CC2)s1 [Compound A-36, 2-(4-((2-acetamidothiazol-5 yl)methyl)piperazin-1-yl)-N-(4-(4-acetylpiperazin-1-yl)phenyl)acetamide]	1040	96.2	180 to 182	
CC(=O)Nc1ncc(CN2CCN(CC(=O)Nc3ccc(N4CCN(C(C)=O)CC4)cc3)CC2C)s1 (stereo not shown) [Compound A-37, 2-(4-((2-acetamidothiazol-5-yl)methyl)-3-methylpiperazin-1-yl)-N-(4-(4-acetylpiperazin-1-yl)phenyl)acetamide]	70	98.4	232	
CC(=O)Nc1ncc(CN2CCN(CC(=O)Nc3ccc(Cc4ccccc4)cc3)CC2)s1 [Compound A-38, 2-(4-((2-acetamidothiazol-5-yl)methyl)piperazin-1-yl)-N-(4-benzylphenyl)acetamide]	370	90.8	132 to 134	
CC(=O)Nc1ncc(CN2CCN(CC(=O)Nc3ccc(Cc4ccccc4)cc3)CC2C)s1 (stereo not shown) [Compound A-39, 2-(4-((2-acetamidothiazol-5-yl)methyl)-3-methylpiperazin-1-yl)-N-(4-benzylphenyl)acetamide]	60	98.8	193 to 195	
CC(=O)Nc1ncc(CN2CCN(CC(=O)NCc3ccc(-c4ccccc4)cc3)CC2)s1 [Compound A-40, N-([1,1′-biphenyl]-4-ylmethyl)-2-(4-((2-acetamidothiazol-5-yl)methyl)piperazin-1-yl)acetamide]	210	97.7	167 to 170	
CC(=O)Nc1ncc(CN2CCN(CC(=O)NCc3ccc(-c4ccccc4)cc3)CC2C)s1 (stereo not shown) [Compound A-41, N-([1,1′-biphenyl]-4-ylmethyl)-2-(4-((2-acetamidothiazol-5-yl)methyl)-3-methylpiperazin-1-yl)acetamide]	30	99.6	215 to 216	
CC(=O)Nc1ncc(CN2CCC(C(=O)Nc3ccccc3)CC2)s1 [Compound B-1, 1-((2-acetamidothiazol-5-yl)methyl)N-phenylpiperidine-4-carboxamide]	870	87.0	172 to 174	
CC(=O)Nc1ncc(CN2CCC(C(=O)Nc3ccc(Cl)cc3)CC2)s1 [Compound B-2, 1-((2-acetamidothiazol-5-yl)methyl)-N-(4-chlorophenyl)piperidine-4-carboxamide]	270	91.0	258 to 260	
CC(=O)Nc1ncc(CN2CCC(C(=O)Nc3ccc(C(C)C)cc3)CC2)s1 [Compound B-3, 1-((2-acetamidothiazol-5-yl)methyl)-N-(4-isopropylphenyl)piperidine-4-carboxamide]	680	91.8	257 to 258	
CC(=O)Nc1ncc(CN2CCC(C(=O)Nc3cnccn3)CC2)s1 [Compound B-4, 1-((2-acetamidothiazol-5-yl)methyl)-N-(pyrazin-2-yl)piperidine-4-carboxamide]		66.9	178 to 180	
CC(=O)Nc1ncc(CN2CCC(C(=O)NC3CCCCC3)CC2)s1 [Compound B-5, 1-((2-acetamidothiazol-5-yl)methyl)-N-cyclohexylpiperidine-4-carboxamide]		46.7	231 to 232	
CC(=O)Nc1ncc(CN2CCC(C(=O)Nc3ccc4ncccc4c3)CC2)s1 [Compound B-6, 1-((2-acetamidothiazol-5 yl)methyl)-N-(quinolin-6-yl)piperidine-4-carboxamide]	320	91.4	234 to 236	
CC(=O)Nc1ncc(CN2CCC(C(=O)NCc3ccccc3)CC2)s1 [Compound B-7, 1-((2-acetamidothiazol-5-yl)methyl)-N-benzylpiperidine-4-carboxamide]	1000	88.2	176 to 178	
COc1ccc(CNC(=O)C2CCN(Cc3cnc(NC(C)=O)s3)CC2)cc1 [Compound B-8, 1-((2-acetamidothiazol-5-yl)methyl)-N-(4-methoxybenzyl)piperidine-4-carboxamide]	860	93.9	215 to 217	
CC(=O)Nc1ncc(CN2CCC(C(=O)NC(C)c3ccc4c(c3)OCO4)CC2)s1 (stereo not shown) [Compound B-9, 1-((2-acetamidothiazol-5-yl)methyl)-N-(1-(benzo[d][1,3]dioxol-5-yl)ethyl)piperidine-4-carboxamide]	1010	93.1	211 to 213	
CC(=O)Nc1ncc(CN2CCC(C(=O)NC(C)c3ccccc3)CC2)s1 (stereo not shown) [Compound B-10, 1-((2-acetamidothiazol-5-yl)methyl)-N-(1-phenylethyl)piperidine-4-carboxamide]	900	93.3	178 to 179	
CC(=O)Nc1ncc(CN2CCC(C(=O)OC(C)c3ccc4c(c3)OCO4)CC2)s1 (stereo not shown) [Compound B-13, 1-(benzo[d][1,3]dioxol-5 yl)ethyl 1-((2-acetamidothiazol-5-yl)methyl)piperidine-4-carboxylate]	60	98.9	215 to 217	
CC(=O)Nc1ncc(CN2CCCC(C(=O)Nc3ccccc3)C2)s1 (stereo not shown) [Compound B-16, 1-((2-acetamidothiazol-5-yl)methyl)-N-phenylpiperidine-3-carboxamide]	230	95.5	257 to 259	
CC(=O)Nc1ncc(CN2CCCC(C(=O)Nc3ccc(F)cc3)C2)s1 (stereo not shown) [Compound B-17, 1-((2-acetamidothiazol-5-yl)methyl)-N-(4-fluorophenyl)piperidine-3-carboxamide]	340	96.7	127 to 129	
CC(=O)Nc1ncc(CN2CCCC(C(=O)Nc3ccc(C(C)C)cc3)C2)s1 (stereo not shown) [Compound B-18, 1-((2-acetamidothiazol-5-yl)methyl)-N-(4-isopropylphenyl)piperidine-3-carboxamide]	240	96.4	234 to 236	
CC(=O)Nc1ncc(CN2CCCC(C(=O)NC3CCCCC3)C2)s1 (stereo not shown) [Compound B-19, 1-((2-acetamidothiazol-5 yl)methyl)-N-cyclohexylpiperidine-3-carboxamide]	450	97.6	265 to 267	
CC(=O)Nc1ncc(CN2CCC(=CC(=O)Nc3ccccc3)CC2)s1 [Compound C-1, 2-(1-((2-acetamidothiazol-5-yl)methyl)piperidin-4-ylidene)-N-phenylacetamide]	310	96.2	184 to 185	
CC(=O)N[C@H]1c2nc(CC(=O)O)cn2[C@H](CO)[C@@H](O)[C@@H]1O [gluco-nagstatin]				420

Further lines, with some results ahead:

IC50 [1] [nM]	% of inhibition [1] [%]	melting point [°C]	SMILES	Ki (human O-GlcNAcase) [nM]
170	97.1	189 to 191	CC(=O)Nc1ncc(CN2CCC(=CC(=O)Nc3ccc(F)cc3)CC2)s1 [Compound C-2, 2-(1-((2-acetamidothiazol-5-yl)methyl)piperidin-4-ylidene)-N-(4-fluorophenyl)acetamide]	
140	97.3	225 to 228	CC(=O)Nc1ncc(CN2CCC(=CC(=O)Nc3ccc(Cl)cc3)CC2)s1 [Compound C-3, 2-(1-((2-acetamidothiazol-5-yl)methyl)piperidin-4-ylidene)-N-(4-chlorophenyl)acetamide]	
230	97.0	232 to 236	CC(=O)Nc1ncc(CN2CCC(=CC(=O)Nc3ccc(C(C)C)cc3)CC2)s1 [Compound C-4, 2-(1-((2-acetamidothiazol-5-yl)methyl)piperidin-4-ylidene)-N-(4-isopropylphenyl)acetamide]	
450	94.8	212 to 214	COc1ccc(NC(=O)C=C2CCN(Cc3cnc(NC(C)=O)s3)CC2)cc1 [Compound C-5, 2-(1-((2-acetamidothiazol-5-yl)methyl)piperidin-4 ylidene)-N-(4-methoxyphenyl)acetamide]	
350	95.8	214 to 219	COc1ccc(NC(=O)C=C2CCN(Cc3cnc(NC(C)=O)s3)CC2)cc1OC [Compound C-6, 2-(1-((2-acetamidothiazol-5-yl)methyl)piperidin-4-ylidene)-N-(3,4-dimethoxyphenyl)acetamide]	
80	98.2	222 to 224	COc1ccc(CNC(=O)C=C2CCN(Cc3cnc(NC(C)=O)s3)CC2)cc1 [Compound C-7, 2-(1-((2-acetamidothiazol-5-yl)methyl)piperidin-4-ylidene)-N-(4-methoxybenzyl)acetamide]	
	97.7	222 to 224	CC(=O)Nc1ncc(CN2CCC(=CC(=O)NC3CCCCC3)CC2)s1 [Compound C-8, 2-(1-((2-acetamidothiazol-5-yl)methyl)piperidin-4-ylidene)-N-cyclohexylacetamide]	

— patent publication US20240018135A1, “COMPOUND HAVING INHIBITORY ACTIVITY AGAINST O-GLUSACASE AND USE THEREOF” (MEDIFRON DBT INC., priority 2020, published 2024)
